Earlier results as cited in patent publication US20240366580A1, “NOVEL PHARMACEUTICAL COMPOSITIONS COMPRISING DABIGATRAN ETEXILATE OR SALT THEREOF” (Zim Laboratories Limited, priority 2021, published 2024).
Structures can show the parent of a compound that is named as a salt.

Experiments:
[1] = oral administration
[2] = high permeability, low solubility

- absolute bioavailability [1]: 3-7%
- solubility in ethanol (ethanol): slightly soluble
- solubility in isopropanol (isopropanol): sparingly soluble
- solubility in methanol (methanol): freely soluble
- BCS class [2]: Class II
Structure (SMILES): CCCCCCOC(=O)NC(=N)c1ccc(NCc2nc3cc(C(=O)N(CCC(=O)OCC)c4ccccn4)ccc3n2C)cc1 [Dabigatran etexilate mesylate, β-Alanine, N-[[2-[[[4-[[[(hexyloxy)carbonyl]amino]iminomethyl]phenyl]amino]methyl]-1-methyl-1H-benzimidazol-5-yl]carbonyl]-N-2-pyridinyl-,ethyl ester, methanesulfonate]
